Measurements published in ChEMBL document CHEMBL2177010, “Discovery and preclinical pharmacology of a selective ATP-competitive Akt inhibitor (GDC-0068) for the treatment of human tumors” (J Med Chem, 2012).
Calls of active or inactive are those of the source. The rule behind the calls is not given here.

Experiments:
[1] = Competitive inhibition of PKA expressed in Escherichia coli assessed as fluorescence labeled peptide substrate phosphorylation after 60 mins in presence of ATP
[2] = target: T1, RAC-alpha serine/threonine-protein kinase (Homo sapiens, UniProt P31749)
T1 sequence (P31749 whole entry): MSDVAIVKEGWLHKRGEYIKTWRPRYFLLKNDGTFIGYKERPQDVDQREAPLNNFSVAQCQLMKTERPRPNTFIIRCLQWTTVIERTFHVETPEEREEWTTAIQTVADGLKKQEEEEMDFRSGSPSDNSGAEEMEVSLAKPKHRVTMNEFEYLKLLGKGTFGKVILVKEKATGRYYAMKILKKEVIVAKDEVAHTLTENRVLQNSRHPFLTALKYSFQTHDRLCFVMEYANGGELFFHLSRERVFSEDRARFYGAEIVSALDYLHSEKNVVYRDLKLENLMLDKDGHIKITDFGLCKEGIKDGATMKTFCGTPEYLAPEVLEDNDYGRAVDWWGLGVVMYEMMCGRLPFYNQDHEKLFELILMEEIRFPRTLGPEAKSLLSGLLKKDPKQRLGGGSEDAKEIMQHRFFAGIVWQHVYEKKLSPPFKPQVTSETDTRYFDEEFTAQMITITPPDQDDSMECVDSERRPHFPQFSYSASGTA
Description: Competitive inhibition of wild-type full-length amino-terminal polyhistidine-tagged human Akt1 expressed in recombinant baculovirus system using fluorescence labeled substrate after 60 mins by fluorescence polarization assay in presence of ATP

[3] = target: T1, RAC-alpha serine/threonine-protein kinase; remark: listed apart in the source
Description: Inhibition of Akt1 in human LNCAP cells assessed as phosphorylation of PRAS40 at Thr246 after 1.5 hrs

[4] = target: RAC-gamma serine/threonine-protein kinase (Homo sapiens, UniProt Q9Y243)
Chain of RAC-gamma serine/threonine-protein kinase (Q9Y243 whole entry): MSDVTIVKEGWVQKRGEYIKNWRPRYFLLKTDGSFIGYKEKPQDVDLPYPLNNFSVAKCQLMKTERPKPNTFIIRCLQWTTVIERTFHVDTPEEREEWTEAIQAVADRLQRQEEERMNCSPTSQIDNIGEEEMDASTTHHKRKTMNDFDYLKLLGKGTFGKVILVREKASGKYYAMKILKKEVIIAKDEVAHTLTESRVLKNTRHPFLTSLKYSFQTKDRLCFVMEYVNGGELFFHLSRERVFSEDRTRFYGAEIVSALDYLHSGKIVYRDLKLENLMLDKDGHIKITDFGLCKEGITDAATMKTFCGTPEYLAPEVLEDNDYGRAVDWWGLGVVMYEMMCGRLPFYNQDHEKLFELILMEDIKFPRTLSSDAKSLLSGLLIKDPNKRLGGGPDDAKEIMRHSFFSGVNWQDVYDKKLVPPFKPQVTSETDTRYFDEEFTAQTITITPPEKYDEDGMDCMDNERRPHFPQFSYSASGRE
Description: Competitive inhibition of wild-type full-length amino-terminal polyhistidine-tagged human Akt3 expressed in recombinant baculovirus system using fluorescence labeled Crosstide as substrate after 60 mins by fluorescence polarization assay in presence of ATP

PC-3 [5] = assay: Antitumor activity against human PC3 xenografted in po dosed nu/nu mouse assessed as inhibition of tumor growth administered once daily measured after 11 days; assay type: functional; conditions: PC-3, po, 264 h, read-out: MED
PC-3 [6] = assay: Antitumor activity against human PC3 xenografted in nu/nu mouse assessed as inhibition of tumor growth at 50 mg/kg, po bid after 11 days; assay type: functional; conditions: PC-3, 264 h, read-out: TGI
PC-3 [7] = assay: Antitumor activity against human PC3 xenografted in nu/nu mouse assessed as inhibition of tumor growth at 100 mg/kg, po qd after 11 days; assay type: functional; conditions: PC-3, 264 h, read-out: TGI
PC-3 [8] = assay: Antitumor activity against human PC3 xenografted in nu/nu mouse assessed as inhibition of tumor growth at 25 mg/kg, po qd after 11 days; assay type: functional; conditions: PC-3, 264 h, read-out: TGI
Mus musculus [9] = assay: Toxicity in nu/nu mouse xenografted with human PC3 cells assessed as loss in body weight at 150 mg/kg, po qd after 8 days relative to vehicle-treated control; assay type: organism-based, PC-3; parameters: dose 150 mg/kg, route oral; conditions: in vivo, 192 h
Mus musculus [10] = assay: Toxicity in nu/nu mouse xenografted with human PC3 cells assessed as loss in body weight at 1 to 100 mg/kg, po qd relative to vehicle-treated control; assay type: organism-based, PC-3; parameters: dose 1-100 mg/kg, route oral; conditions: in vivo
Mus musculus [11] = assay: Inhibition of Akt in nu/nu mouse xenografted with human PC3 cells assessed as decrease in tumor p-PRAS40 level at 100 mg/kg, po at 8 hrs by ELISA relative to total PRAS40; assay type: functional; conditions: PC-3, 8 h
[12] = Plasma concentration in nu/nu mouse xenografted with human PC3 cells at 100 mg/kg, po at 8 hrs by LC/MS/MS analysis; assay type: ADME, organism-based, PC-3; parameters: dose 100 mg/kg, route oral
Mus musculus [13] = assay: Inhibition of Akt in nu/nu mouse xenografted with human PC3 cells assessed as decrease in tumor p-PRAS40 level at 100 mg/kg, po within 3 hrs by ELISA relative to total PRAS40; assay type: functional; conditions: PC-3, 3 h
[14] = Plasma concentration in nu/nu mouse xenografted with human PC3 cells at 50 mg/kg, po at 9 hrs by LC/MS/MS analysis; assay type: ADME, organism-based, PC-3; parameters: dose 50 mg/kg, route oral
[15] = Plasma concentration in nu/nu mouse xenografted with human PC3 cells at 50 mg/kg, po at 1 hr by LC/MS/MS analysis; assay type: ADME, organism-based, PC-3; parameters: dose 50 mg/kg, route oral
[16] = Plasma concentration in nu/nu mouse xenografted with human PC3 cells at 50 mg/kg, po within 1 hr by LC/MS/MS analysis; assay type: ADME, organism-based, PC-3; parameters: dose 50 mg/kg, route oral
[17] = Plasma concentration in nu/nu mouse xenografted with human PC3 cells at 12.5 mg/kg, po within 1 hr by LC/MS/MS analysis; assay type: ADME, organism-based, PC-3; parameters: dose 12.5 mg/kg, route oral
BT-474 = assay: Cytotoxicity against human BT474M1 cells assessed as decrease in cell viability after 96 hrs by CellTitre-Glo assay; conditions: BT474M1, 96 h
MCF7 = assay: Cytotoxicity against human MCF7 cells overexpressing Her2 assessed as decrease in cell viability after 96 hrs by CellTitre-Glo assay; conditions: MCF7, 96 h
PC-3 [18] = assay: Cytotoxicity against human PC3 cells assessed as decrease in cell viability after 96 hrs by CellTitre-Glo assay; conditions: PC-3, 96 h
LNCaP = assay: Cytotoxicity against human LNCAP cells assessed as reduction of resazurin to resorufin after 72 hrs
[19] = Solubility of the compound at pH 1.2 to 7.4; assay type: physicochemical; conditions: buffer
[20] = target: T1, RAC-alpha serine/threonine-protein kinase; conditions: BT474M1
Description: Inhibition of Akt1-mediated PRAS40 phosphorylation in human BT474M1 cells

[21] = Permeability across apical to basolateral side in human Caco2 cells; assay type: ADME, cell-based; conditions: Caco-2, read-out: permeability
[22] = Permeability across basolateral to apical side in human Caco2 cells; assay type: ADME, cell-based; conditions: Caco-2, read-out: permeability

IC50 [1] [nM]	IC50 [2] [nM]	IC50 [3] [nM]	IC50 [4] [nM]	Compound	further results
293	2	75	3	C[C@@H]1C[C@@H](O)c2ncnc(N3CCN(C(=O)[C@H](CNC(C)(C)CO)c4ccc(Cl)cc4)CC3)c21	
153				C[C@@H]1C[C@@H](O)c2ncnc(N3CCN(C(=O)[C@H](CNC(C)(C)C)c4ccc(C(F)(F)F)c(F)c4)CC3)c21	
556	12	139	12	C[C@@H]1C[C@@H](O)c2ncnc(N3CCN(C(=O)[C@H](CNC4CCOCC4)c4ccc(Cl)c(F)c4)CC3)c21	
1550				CC(C)NC[C@@H](C(=O)N1CCN(c2ncnc3c2[C@H](C)C[C@@H]3O)CC1)c1ccc(Cl)cc1	
490	3	234	7	CC(C)NC[C@@H](C(=O)N1CCN(c2ncnc3c2[C@H](C)C[C@H]3O)CC1)c1ccc(Cl)c(F)c1	
1000	8	384	13	COCCNC[C@@H](C(=O)N1CCN(c2ncnc3c2[C@H](C)C[C@H]3O)CC1)c1ccc(Cl)cc1	
17			10	CC(C)NC[C@@H](C(=O)N1CCN(c2ncnc3c2[C@H](C)C[C@H]3F)CC1)c1ccc(Cl)cc1	
1320	12	1300	21	C[C@@H]1C[C@@H](O)c2ncnc(N3CCN(C(=O)[C@H](CNCCF)c4ccc(Cl)cc4)CC3)c21	
700	24	1450	45	C[C@@H]1C[C@@H](O)c2ncnc(N3CCN(C(=O)[C@H](CN)c4ccc(Cl)cc4)CC3)c21	
75			2	C[C@@H]1C[C@@H](O)c2ncnc(N3CCN(C(=O)[C@H](CNC(C)(C)CO)c4ccc(C(F)(F)F)c(F)c4)CC3)c21	
541			23	CC(C)NC[C@@H](C(=O)N1CCN(c2ncnc3c2[C@H](C)C[C@@H]3F)CC1)c1ccc(Cl)cc1	
2140	18	139		CC(C)N(C)C[C@@H](C(=O)N1CCN(c2ncnc3c2[C@H](C)C[C@H]3O)CC1)c1ccc(Cl)cc1	

More lines, now with the values behind:

Compound	IC50 [1] [nM]	IC50 [2] [nM]	IC50 [3] [nM]	IC50 [4] [nM]	further results
C[C@@H]1C[C@@H](O)c2ncnc(N3CCN(C(=O)[C@H](CNCC4CCOCC4)c4ccc(Cl)cc4)CC3)c21	436	3	102	4	
CC(C)NC[C@@H](C(=O)N1CCN(c2ncnc3c2[C@H](CO)CC3)CC1)c1ccc(Cl)cc1	957	81	846	83	
CC(C)NC[C@@H](C(=O)N1CCN(c2ncnc3c2[C@H](C)C[C@H]3O)CC1)c1ccc(Cl)cc1 [IPATASERTIB]	3100				minimal effective dose (PC-3 [5]): 25 mg/kg; inhibition in vivo at 50 mg/kg (PC-3 [6]): 81%; inhibition in vivo at 100 mg/kg (PC-3 [7]): 79%; inhibition in vivo at 25 mg/kg (PC-3 [8]): 49%; Activity (Mus musculus [9]): >= 20%; Activity (Mus musculus [10]): < 10%; inhibition in vivo at 100 mg/kg (Mus musculus [11]): 87%; concentration at 8 h [12]: > 2600 nM; inhibition in vivo at 100 mg/kg (Mus musculus [13]): > 95%; concentration at 9 h [14]: 500 nM; concentration at 1 h [15]: 7400 nM; concentration at 1 h [16]: ≥ 200 nM; concentration at 1 h [17]: ≥ 200 nM; IC50 (BT-474): 1000 nM; IC50 (MCF7): 1000 nM; IC50 (PC-3 [18]): 1000 nM; IC50 (LNCaP): 95 nM; solubility [19]: > 10000 µg/mL; inhibition [20]: Active
C[C@@H]1C[C@@H](O)c2ncnc(N3CCN(C(=O)[C@@H](c4ccc(Cl)cc4)[C@@H]4CCCCN4)CC3)c21	1600	9	530	12	
C[C@@H]1C[C@@H](O)c2ncnc(N3CCN(C(=O)[C@H](CN)c4ccc(C(F)(F)F)cc4)CC3)c21	418	12	603	27	
C[C@@H]1C[C@@H](O)c2ncnc(N3CCN(C(=O)[C@@H](c4ccc(Cl)cc4)[C@@H]4CCCN4)CC3)c21	271	3	241	5	
C[C@@H]1C[C@@H](O)c2ncnc(N3CCN(C(=O)[C@@H](c4ccc(Cl)cc4)[C@@H]4COCCN4)CC3)c21	1360	12	855	26	
CC(C)NC[C@@H](C(=O)N1CCN(c2ncnc3c2C(C)(C)CC3)CC1)c1ccc(Cl)cc1	> 2000			> 2000	
C=C[C@@H]1CCc2ncnc(N3CCN(C(=O)[C@H](CNC(C)C)c4ccc(Cl)cc4)CC3)c21	10	2	176	1	
C[C@@H]1C[C@@H](O)c2ncnc(N3CCN(C(=O)[C@H](CNCC4CC4)c4ccc(C(F)(F)F)c(F)c4)CC3)c21	103			2	
C[C@@H]1C[C@@H](O)c2ncnc(N3CCN(C(=O)[C@H](CNC4CCOCC4)c4ccc(Cl)cc4)CC3)c21	654				
C[C@@H]1C[C@@H](O)c2ncnc(N3CCN(C(=O)[C@H](CN4CCC(F)CC4)c4ccc(Cl)cc4)CC3)c21	1200	6	196		
C[C@@H]1C[C@@H](O)c2ncnc(N3CCN(C(=O)[C@H](CNCC4CC4)c4ccc(Cl)cc4)CC3)c21	777				
C[C@@H]1C[C@@H](O)c2ncnc(N3CCN(C(=O)[C@H](CNCC(F)(F)F)c4ccc(Cl)cc4)CC3)c21	> 10000	902		798	
CO[C@H]1CC[C@H](NC[C@@H](C(=O)N2CCN(c3ncnc4c3[C@H](C)C[C@H]4O)CC2)c2ccc(Cl)cc2)CC1	662	5	132	4	
C[C@@H]1C[C@@H](O)c2ncnc(N3CCN(C(=O)[C@H](CNC4CCCCC4)c4ccc(Cl)cc4)CC3)c21	1280	9	367	7	
CC(C)NC[C@@H](C(=O)N1CCN(c2ncnc3c2[C@H](CF)CC3)CC1)c1ccc(Cl)cc1	35	3	123	5	
CC(C)NC[C@@H](C(=O)N1CCN(c2ncnc3c2[C@H](C)CC3)CC1)c1ccc(Cl)cc1	33	6	287	5	Papp A→B [21]: 13.2 ×10⁻⁶ cm/s; Papp B→A [22]: 19.2 ×10⁻⁶ cm/s
CC(C)NC[C@@H](C(=O)N1CCN(c2ncnc3c2[C@H](C)CC3(F)F)CC1)c1ccc(Cl)cc1	> 10000	1170	8550		
